In test [1] the target is T1, Non-receptor tyrosine-protein kinase TNK1 (Homo sapiens) (UniProt Q13470).
T1 sequence (whole entry): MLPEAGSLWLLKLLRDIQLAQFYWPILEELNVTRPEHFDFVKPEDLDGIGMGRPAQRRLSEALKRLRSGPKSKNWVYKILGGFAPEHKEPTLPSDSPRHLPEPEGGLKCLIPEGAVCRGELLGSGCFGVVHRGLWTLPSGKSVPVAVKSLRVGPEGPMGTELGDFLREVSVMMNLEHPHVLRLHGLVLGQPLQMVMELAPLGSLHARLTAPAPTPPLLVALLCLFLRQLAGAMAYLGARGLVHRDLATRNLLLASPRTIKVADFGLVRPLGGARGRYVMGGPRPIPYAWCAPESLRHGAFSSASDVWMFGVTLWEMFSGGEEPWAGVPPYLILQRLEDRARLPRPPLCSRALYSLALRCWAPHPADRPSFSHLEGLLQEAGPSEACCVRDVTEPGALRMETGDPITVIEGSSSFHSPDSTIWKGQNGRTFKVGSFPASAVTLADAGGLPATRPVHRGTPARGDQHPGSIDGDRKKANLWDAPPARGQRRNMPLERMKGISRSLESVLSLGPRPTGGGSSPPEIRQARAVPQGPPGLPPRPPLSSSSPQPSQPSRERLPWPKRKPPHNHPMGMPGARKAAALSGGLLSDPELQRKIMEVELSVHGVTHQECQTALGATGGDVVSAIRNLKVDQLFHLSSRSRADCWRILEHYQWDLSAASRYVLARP
Nature of the test: Selectivity interaction (Kinase panel (Z-LYTE Assay)) EUB0001632a TNK1. Conditions: at 10 µM.

In test [2] the target is T2, Myosin light chain kinase family member 4 (Homo sapiens) (UniProt Q86YV6).
T2 sequence (whole entry): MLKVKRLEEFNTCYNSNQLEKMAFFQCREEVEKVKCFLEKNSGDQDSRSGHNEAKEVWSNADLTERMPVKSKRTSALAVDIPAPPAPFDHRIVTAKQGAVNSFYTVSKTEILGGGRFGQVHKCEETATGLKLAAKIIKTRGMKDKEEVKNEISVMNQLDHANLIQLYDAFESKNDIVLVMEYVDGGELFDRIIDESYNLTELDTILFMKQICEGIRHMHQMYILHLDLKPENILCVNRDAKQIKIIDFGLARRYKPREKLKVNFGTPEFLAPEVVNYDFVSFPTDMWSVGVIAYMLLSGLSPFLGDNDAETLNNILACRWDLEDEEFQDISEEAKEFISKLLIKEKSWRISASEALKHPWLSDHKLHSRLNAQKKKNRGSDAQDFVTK
The experiment in a line: Selectivity interaction (KinomeScan (DiscoverX)) EUB0001619a MYLK4. Conditions: at 1 µM.

Test [3] deals with Vasopressin V1a receptor (Homo sapiens) (UniProt P37288). The experiment in a line: Selectivity interaction (Eurofins CEREP Diversity Profile (receptors and ion channels)) EUB0000279b AVPR1A. Conditions: at 10 µM.
Test [4] concerns the target T3, Mitogen-activated protein kinase kinase kinase kinase 3 (Homo sapiens) (UniProt Q8IVH8).
T3 sequence (whole entry): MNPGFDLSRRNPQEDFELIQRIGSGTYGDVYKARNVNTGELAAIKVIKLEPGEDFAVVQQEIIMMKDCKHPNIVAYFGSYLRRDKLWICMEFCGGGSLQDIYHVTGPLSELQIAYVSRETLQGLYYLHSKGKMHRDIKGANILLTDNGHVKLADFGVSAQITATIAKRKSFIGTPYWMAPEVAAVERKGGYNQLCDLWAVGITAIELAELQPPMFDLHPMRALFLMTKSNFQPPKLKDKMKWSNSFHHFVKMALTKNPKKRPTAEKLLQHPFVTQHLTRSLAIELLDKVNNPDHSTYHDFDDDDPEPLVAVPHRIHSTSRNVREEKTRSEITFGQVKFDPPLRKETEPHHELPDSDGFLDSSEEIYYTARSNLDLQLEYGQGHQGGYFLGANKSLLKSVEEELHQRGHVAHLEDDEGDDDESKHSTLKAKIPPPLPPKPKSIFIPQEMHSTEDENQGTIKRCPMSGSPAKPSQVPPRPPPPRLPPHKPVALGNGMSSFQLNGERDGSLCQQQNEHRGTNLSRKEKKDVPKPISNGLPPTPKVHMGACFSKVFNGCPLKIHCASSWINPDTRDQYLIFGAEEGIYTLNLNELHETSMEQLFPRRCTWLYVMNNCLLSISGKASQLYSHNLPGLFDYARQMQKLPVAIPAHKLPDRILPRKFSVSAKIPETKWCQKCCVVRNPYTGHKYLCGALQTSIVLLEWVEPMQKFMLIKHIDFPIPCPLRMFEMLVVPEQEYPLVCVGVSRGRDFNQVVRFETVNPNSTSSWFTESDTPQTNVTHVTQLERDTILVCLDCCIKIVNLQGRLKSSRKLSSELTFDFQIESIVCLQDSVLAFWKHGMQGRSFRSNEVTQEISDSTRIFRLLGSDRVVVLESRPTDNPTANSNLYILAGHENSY
Nature of the test: Selectivity interaction (KinomeScan (DiscoverX)) EUB0000695a MAP4K3. Conditions: at 100 nM.

Test [5] has as its target Serine/threonine-protein kinase Nek7 (Homo sapiens) (UniProt Q8TDX7). Nature of the test: Selectivity interaction (KinomeScan (DiscoverX)) EUB0000607a NEK7. Conditions: at 10 µM.
The target of test [6] is Serine/threonine-protein kinase tousled-like 2 (Homo sapiens) (UniProt Q86UE8). Nature of the test: Selectivity interaction (KinomeScan (DiscoverX)) EUB0000045b TLK2.
In test [7] the target is Ribosomal protein S6 kinase alpha-2 (Homo sapiens) (UniProt Q15349). The experiment in a line: Selectivity interaction (ProQinase) EUB0000171b RPS6KA2.
Test [8] addresses T4, Mitogen-activated protein kinase 12 (Homo sapiens) (UniProt P53778).
T4 sequence (whole entry): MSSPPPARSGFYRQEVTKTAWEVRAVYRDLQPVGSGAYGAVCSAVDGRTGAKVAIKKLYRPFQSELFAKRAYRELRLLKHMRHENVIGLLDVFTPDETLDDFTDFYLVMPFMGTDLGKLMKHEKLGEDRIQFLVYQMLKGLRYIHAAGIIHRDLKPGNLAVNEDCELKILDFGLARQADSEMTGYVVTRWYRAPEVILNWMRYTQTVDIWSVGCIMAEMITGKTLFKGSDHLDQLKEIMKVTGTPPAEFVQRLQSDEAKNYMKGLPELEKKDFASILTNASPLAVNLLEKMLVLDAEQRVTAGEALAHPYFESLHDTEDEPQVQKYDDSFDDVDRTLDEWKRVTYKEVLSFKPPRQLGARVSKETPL
Nature of the test: Selectivity interaction (KinomeScan (DiscoverX)) EUB0001049a MAPK12. Particulars: at 1 µM.

Test [9] addresses Histone-lysine N-methyltransferase KMT5B (Homo sapiens) (UniProt Q4FZB7). The experiment in a line: Selectivity interaction (Methyltransferase screen (radiometric assays, panel of 8 PRMTs, 21 protein lysine methyltransferases, 3 DNA methyltransferases, and one RNA methyltransferase)) EUB0000271b SUV420H1.
Test [10] has as its target Receptor tyrosine-protein kinase erbB-4 (Homo sapiens, UniProt Q15303). Nature of the test: Selectivity interaction (KinomeScan (DiscoverX)) EUB0001079a ERBB4. Particulars: at 1 µM.

Ribosomal protein S6 kinase alpha-2 (Homo sapiens), sequence (Q15349 whole entry): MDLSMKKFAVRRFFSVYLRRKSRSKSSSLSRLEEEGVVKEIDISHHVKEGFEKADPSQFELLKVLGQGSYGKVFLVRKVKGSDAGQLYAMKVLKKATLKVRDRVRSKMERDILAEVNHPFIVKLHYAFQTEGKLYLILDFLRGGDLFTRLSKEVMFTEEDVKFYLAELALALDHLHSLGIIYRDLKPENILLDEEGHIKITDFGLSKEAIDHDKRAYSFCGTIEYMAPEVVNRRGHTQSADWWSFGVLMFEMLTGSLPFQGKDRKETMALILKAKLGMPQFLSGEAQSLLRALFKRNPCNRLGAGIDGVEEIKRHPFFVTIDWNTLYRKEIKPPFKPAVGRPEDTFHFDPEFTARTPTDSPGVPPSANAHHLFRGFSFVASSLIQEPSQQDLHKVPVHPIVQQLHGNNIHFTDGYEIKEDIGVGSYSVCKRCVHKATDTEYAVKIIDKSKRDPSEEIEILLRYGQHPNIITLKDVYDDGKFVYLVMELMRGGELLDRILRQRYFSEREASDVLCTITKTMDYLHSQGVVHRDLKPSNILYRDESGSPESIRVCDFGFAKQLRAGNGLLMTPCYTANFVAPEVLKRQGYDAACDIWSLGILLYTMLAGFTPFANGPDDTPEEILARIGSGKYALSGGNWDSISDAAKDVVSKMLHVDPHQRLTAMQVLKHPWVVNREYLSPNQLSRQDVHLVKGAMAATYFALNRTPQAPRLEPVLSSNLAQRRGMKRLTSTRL
Histone-lysine N-methyltransferase KMT5B (Homo sapiens), sequence (Q4FZB7 whole entry, looked up): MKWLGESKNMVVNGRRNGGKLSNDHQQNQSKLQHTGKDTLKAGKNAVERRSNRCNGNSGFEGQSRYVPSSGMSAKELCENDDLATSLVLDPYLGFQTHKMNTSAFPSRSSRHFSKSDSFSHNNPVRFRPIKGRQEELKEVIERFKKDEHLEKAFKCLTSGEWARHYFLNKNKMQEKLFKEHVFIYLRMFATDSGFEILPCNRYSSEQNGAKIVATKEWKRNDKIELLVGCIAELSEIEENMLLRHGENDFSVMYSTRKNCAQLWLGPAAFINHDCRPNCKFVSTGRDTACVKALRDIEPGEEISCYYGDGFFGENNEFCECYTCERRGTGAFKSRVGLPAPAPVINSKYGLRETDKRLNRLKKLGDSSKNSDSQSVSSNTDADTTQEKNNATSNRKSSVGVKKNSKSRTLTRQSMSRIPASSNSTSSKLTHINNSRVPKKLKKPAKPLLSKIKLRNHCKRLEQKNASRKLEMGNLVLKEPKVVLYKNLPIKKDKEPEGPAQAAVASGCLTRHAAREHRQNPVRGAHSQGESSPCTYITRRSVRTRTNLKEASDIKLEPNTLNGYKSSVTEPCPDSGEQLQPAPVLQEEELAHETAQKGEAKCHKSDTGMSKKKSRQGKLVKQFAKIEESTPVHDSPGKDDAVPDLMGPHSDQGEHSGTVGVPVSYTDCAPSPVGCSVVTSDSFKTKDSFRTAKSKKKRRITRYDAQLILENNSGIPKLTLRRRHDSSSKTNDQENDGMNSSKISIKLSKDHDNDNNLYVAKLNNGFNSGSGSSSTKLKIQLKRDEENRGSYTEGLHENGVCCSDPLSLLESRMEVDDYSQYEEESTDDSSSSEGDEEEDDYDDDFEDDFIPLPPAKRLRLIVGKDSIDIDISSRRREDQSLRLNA
Serine/threonine-protein kinase tousled-like 2 (Homo sapiens), sequence (Q86UE8 whole entry, looked up): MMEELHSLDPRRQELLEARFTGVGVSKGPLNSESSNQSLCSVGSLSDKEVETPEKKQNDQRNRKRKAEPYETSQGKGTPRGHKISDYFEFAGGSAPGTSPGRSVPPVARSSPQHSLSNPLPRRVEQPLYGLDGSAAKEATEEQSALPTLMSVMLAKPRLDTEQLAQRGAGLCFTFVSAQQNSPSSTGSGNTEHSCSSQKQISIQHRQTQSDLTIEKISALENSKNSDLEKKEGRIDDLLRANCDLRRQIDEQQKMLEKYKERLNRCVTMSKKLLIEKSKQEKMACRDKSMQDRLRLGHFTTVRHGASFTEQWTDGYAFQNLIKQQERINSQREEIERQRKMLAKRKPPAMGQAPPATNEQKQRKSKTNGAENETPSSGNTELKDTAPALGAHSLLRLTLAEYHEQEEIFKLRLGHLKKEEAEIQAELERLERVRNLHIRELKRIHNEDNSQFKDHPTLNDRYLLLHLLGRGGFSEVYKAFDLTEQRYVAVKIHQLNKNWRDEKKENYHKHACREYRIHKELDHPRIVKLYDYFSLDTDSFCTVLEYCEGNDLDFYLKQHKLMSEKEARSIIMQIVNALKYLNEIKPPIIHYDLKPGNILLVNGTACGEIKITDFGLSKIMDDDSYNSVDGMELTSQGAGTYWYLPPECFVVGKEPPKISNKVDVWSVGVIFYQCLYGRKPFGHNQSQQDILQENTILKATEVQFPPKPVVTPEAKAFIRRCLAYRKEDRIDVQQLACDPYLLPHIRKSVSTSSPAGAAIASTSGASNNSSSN
Vasopressin V1a receptor (Homo sapiens), sequence (P37288 whole entry, looked up): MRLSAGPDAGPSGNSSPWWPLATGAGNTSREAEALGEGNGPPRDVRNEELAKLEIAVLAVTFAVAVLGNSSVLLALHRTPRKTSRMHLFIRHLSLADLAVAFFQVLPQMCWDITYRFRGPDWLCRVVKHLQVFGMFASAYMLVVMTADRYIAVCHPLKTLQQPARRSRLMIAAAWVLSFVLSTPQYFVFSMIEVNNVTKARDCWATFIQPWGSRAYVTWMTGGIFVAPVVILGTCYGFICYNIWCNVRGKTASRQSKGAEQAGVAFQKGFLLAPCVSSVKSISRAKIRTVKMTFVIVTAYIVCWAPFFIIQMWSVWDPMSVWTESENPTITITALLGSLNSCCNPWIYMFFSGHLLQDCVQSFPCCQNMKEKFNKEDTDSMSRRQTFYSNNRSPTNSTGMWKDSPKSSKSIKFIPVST
Receptor tyrosine-protein kinase erbB-4, sequence (Q15303 whole entry): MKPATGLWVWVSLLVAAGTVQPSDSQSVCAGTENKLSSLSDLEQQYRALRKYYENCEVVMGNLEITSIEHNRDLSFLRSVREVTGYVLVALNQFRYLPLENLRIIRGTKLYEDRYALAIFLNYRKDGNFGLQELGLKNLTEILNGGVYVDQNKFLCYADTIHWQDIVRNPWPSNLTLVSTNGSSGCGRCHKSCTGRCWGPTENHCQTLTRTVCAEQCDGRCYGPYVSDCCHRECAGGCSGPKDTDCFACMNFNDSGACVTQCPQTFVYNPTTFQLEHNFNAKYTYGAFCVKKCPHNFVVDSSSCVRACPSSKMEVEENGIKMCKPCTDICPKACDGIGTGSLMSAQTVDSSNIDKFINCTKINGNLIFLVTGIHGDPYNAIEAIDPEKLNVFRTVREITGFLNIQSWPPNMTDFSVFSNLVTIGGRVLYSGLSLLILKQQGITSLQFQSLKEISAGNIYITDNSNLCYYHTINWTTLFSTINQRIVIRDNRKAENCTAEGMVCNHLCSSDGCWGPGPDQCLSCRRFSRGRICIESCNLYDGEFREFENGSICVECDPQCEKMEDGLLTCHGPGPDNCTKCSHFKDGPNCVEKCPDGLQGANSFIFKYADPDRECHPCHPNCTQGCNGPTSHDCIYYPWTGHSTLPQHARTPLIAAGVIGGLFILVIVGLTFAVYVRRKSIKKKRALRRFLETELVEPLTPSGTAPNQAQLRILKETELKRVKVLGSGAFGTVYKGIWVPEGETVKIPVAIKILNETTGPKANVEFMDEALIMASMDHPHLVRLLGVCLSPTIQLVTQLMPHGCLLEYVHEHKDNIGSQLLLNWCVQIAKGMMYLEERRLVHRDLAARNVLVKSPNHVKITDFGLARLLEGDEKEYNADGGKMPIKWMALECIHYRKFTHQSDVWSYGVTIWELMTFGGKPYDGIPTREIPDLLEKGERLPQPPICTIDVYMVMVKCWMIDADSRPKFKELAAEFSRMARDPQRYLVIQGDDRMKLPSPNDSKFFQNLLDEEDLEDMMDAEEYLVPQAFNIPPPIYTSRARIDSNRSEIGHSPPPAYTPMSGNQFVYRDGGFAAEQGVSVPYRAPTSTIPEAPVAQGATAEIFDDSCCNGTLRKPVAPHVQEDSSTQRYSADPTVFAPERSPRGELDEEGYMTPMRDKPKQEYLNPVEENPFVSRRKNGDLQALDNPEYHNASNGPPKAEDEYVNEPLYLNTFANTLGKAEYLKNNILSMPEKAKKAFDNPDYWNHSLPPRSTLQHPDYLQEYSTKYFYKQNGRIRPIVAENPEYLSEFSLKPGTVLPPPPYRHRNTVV
Serine/threonine-protein kinase Nek7 (Homo sapiens), sequence (Q8TDX7 whole entry, looked up): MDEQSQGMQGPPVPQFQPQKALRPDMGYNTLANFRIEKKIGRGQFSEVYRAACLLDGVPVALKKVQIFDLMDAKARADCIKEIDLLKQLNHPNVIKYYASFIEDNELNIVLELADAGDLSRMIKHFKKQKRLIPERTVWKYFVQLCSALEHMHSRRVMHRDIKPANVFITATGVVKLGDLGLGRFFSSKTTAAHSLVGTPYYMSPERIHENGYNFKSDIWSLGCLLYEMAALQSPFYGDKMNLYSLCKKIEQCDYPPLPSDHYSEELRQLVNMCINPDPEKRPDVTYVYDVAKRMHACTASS

For `Cn1cc(-n2cnc3c(NCc4nc5cc(Cl)c(Cl)cc5[nH]4)nc(N4CCOCC4)nc32)cn1`, the % of control in test [1] is 4.62%.

Consider `N#Cc1cccc(-c2c[nH]c3ncnc(N4CCOCC4)c23)c1`, for which, in [2], the % of control is 100%. As for `CC(=O)c1cc(-c2ccccc2OCC2CC2)c2ncccn12`, the % of control in test [3] is 89%. With `Cc1cc(F)c(C(=O)Nc2cccc(-c3nncn3C(C)C)n2)cc1-n1cnc(C2CC2)c1`, the % of control in [4] is 70%. `CNC(=O)Nc1ccc(-c2nc(N3CC4CCC(C3)O4)c3cnn(C4CCC5(CC4)OCCO5)c3n2)cc1`: the % of control in test [5] stood at 100%. For `C=CC(=O)Nc1cc(-n2c(=O)ccc3cnc4ccc(-c5ccc(NS(C)(=O)=O)cc5)cc4c32)ccc1C`, the % of control in [6] (at 1 µM) and in test [6] (at 10 µM) was 100% in each case.

On to `C=CC(=O)Nc1cccc(C(=O)Nc2ccc(Nc3cc(-c4[nH]c(SC)nc4C)ccn3)cc2)c1`, for which the % of control came out at 88% in test [7] (at 1 µM) and 69% in test [7] (at 5 µM). Consider `COc1cc(Nc2nc(C)cc(-c3cnn4nc(OC)ccc34)n2)cc(C(F)(F)F)c1`, for which the % of control in test [8] was determined as 71%. Consider `Cc1cc(C)cc([C@@H]2c3cc(C)ccc3NC(=O)CN2C(=O)c2ccc(Br)s2)c1`, for which the % of activity in [9] (at 1 µM) amounted to 103%; in test [9] (at 10 µM), 101%. Compound `Nc1cnc(N2CCc3cc(S(=O)(=O)Nc4c(F)cc(Cl)cc4F)cc(N4CCCC4=O)c32)nc1` [TP-020n] came in with a % of control in [10] of 100%.

For the origin of these results see ChEMBL document CHEMBL5465560, “Selectivity Literature for EUbOPEN Chemogenomic Library” (2024).
